Laboratory results reported in ChEMBL document CHEMBL5346969 (J Med Chem, 2023).
Converted amounts (≈) assume the structure as drawn. The source made the active and inactive calls. The calls are words filed in the database; no cut-off is given here.

Key:
[1] = molecular target: T1, Phospholipid hydroperoxide glutathione peroxidase GPX4 (Homo sapiens, UniProt P36969); assay: Inhibition of GPX4 (unknown origin) incubated for 1 hrs in presence of glutathione and glutathione reductase by microplate reader analysis
T1 sequence (P36969 whole entry): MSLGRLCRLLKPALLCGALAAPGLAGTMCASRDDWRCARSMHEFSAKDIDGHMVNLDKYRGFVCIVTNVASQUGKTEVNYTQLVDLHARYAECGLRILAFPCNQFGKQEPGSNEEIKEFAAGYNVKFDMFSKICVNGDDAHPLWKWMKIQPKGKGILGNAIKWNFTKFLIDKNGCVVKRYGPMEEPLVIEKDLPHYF

HT-29 = assay: Antiproliferative activity against human HT-29 cells assessed as inhibition of cell viability at 1 uM incubated for 72 hrs by MTT assay; assay type: functional, cell-based
MDA-MB-231 [2] = assay: Induction of ferroptosis-mediated morphological changes in human MDA-MB-231 cells assessed as increased membrane density at 20 nM incubated for 6 hrs by TEM analysis; assay type: functional, cell-based
[3] = Toxicity in immunodeficient BALB/c mouse xenografted with human MDA-MB-231 cells assessed as morphological changes in kidney at 20 mg/kg, ip for 21 days by H and E staining based microscopy; assay type: organism-based; details: in vivo, 504 h, time 21 day
[4] = Solubility of compound at pH 7.4; assay type: physicochemical; details: buffer
MDA-MB-231 [5] = assay: Induction of ferroptosis in human MDA-MB-231 cells assessed as cell viability at 1 uM incubated for 72 hrs in presence of glutathione by MTT assay; assay type: functional, cell-based
MDA-MB-231 [6] = assay: Antitumor activity against human MDA-MB-231 cells xenografted in immunodeficient BALB/c mouse assessed as tumor growth inhibition at 10 mg/kg,ip for 21 days consecutively every day; assay type: functional; details: MDA-MB-231, 504 h, time 21 day, read-out: TGI
MDA-MB-231 [7] = assay: Induction of ferroptosis in human MDA-MB-231 cells assessed as cell viability at 1 uM incubated for 72 hrs in presence of necrosis inhibitor, necrostatin-1 by MTT assay; assay type: functional, cell-based
BT-549 [8] = assay: Antiproliferative activity against human BT-549 cells assessed as inhibition of cell viability at 1 uM incubated for 72 hrs by MTT assay; assay type: functional, cell-based
[9] = Toxicity in immunodeficient BALB/c mouse assessed as change in ALT level at 20 mg/kg, ip for 14 days by biochemical analysis; assay type: organism-based; details: in vivo, 336 h, time 14 day
MDA-MB-231 [10] = assay: Induction of ferroptosis in human MDA-MB-231 cells assessed as increase in intracellular lipid peroxidase by measuring decrease in red fluorescence intensity at 5 to 20 nM incubated for 8 hrs by C11-BODIPY-581/591 staining based confocal laser microscopy; assay type: functional, cell-based; details: dose 5-20 nM
MDA-MB-231 [11] = assay: Induction of ferroptosis in human MDA-MB-231 cells assessed as increase in intracellular lipid peroxidase by measuring MDA content at 5 to 20 nM incubated for 8 hrs by C11-BODIPY-581/591 staining based flow cytometry analysis; assay type: functional, cell-based; details: dose 5-20 nM
MDA-MB-231 [12] = assay: Induction of ferroptosis in human MDA-MB-231 cells assessed as increase in intracellular Fe2+ level at 5 to 20 nM incubated for 8 hrs by FerroOrange staining based confocal laser microscopy; assay type: functional, cell-based; details: dose 5-20 nM
MDA-MB-231 [13] = assay: Antitumor activity against human MDA-MB-231 cells xenografted in immunodeficient BALB/c mouse assessed as tumor growth inhibition at 20 mg/kg,ip for 21 days consecutively every day; assay type: functional; details: MDA-MB-231, 504 h, time 21 day, read-out: TGI
MCF-10A = assay: Cytotoxicity against human MCF-10A cells assessed as inhibition of cell viability at 1 uM incubated for 72 hrs by MTT assay; assay type: toxicity, cell-based
MDA-MB-231 [14] = assay: Induction of ferroptosis-mediated morphological changes in human MDA-MB-231 cells assessed as decreased or absence of mitochondrial crests at 20 nM incubated for 6 hrs by TEM analysis; assay type: functional, cell-based
[15] = Metabolic stability in human liver microsomes assessed as half life at 1 uM incubated upto 60 mins in presence of NADPH by LC-MS/MS analysis; assay type: ADME, Microsome
MDA-MB-231 [16] = assay: Induction of ferroptosis in human MDA-MB-231 cells assessed as cell viability incubated for 72 hrs in presence of ferroptosis inhibitor, ferrostatin-1 by MTT assay; assay type: functional, cell-based; details: MDA-MB-231, 72 h
MDA-MB-231 [17] = assay: Induction of ferroptosis in human MDA-MB-231 cells assessed as cell viability at 1 uM incubated for 72 hrs in presence of deferoxamine by MTT assay; assay type: functional, cell-based
L02 = assay: Cytotoxicity against human L02 cells assessed as inhibition of cell viability at 1 uM incubated for 72 hrs by MTT assay; assay type: toxicity, cell-based; details: l02, 72 h
MDA-MB-231 [18] = assay: Induction of ferroptosis in human MDA-MB-231 cells assessed as cell viability at 1 uM incubated for 72 hrs in presence of apoptosis inhibitor, Z-VAD-FMK by MTT assay; assay type: functional, cell-based
MDA-MB-231 [19] = assay: Antiproliferative activity against human MDA-MB-231 cells assessed as inhibition of cell viability at 1 uM incubated for 72 hrs by MTT assay; assay type: functional, cell-based
MDA-MB-231 [20] = assay: Induction of ferroptosis in human MDA-MB-231 cells with assessed as decrease in FTH1 protein expression level at 5 to 20 nM incubated for 8 hrs by Western blot analysis; assay type: functional, cell-based; details: dose 5-20 nM
[21] = Toxicity in immunodeficient BALB/c mouse assessed as change in LDH level at 20 mg/kg, ip for 14 days by biochemical analysis; assay type: organism-based; details: in vivo, 336 h, time 14 day
MDA-MB-231 [22] = assay: Induction of ferroptosis in human MDA-MB-231 cells with assessed as change in GPX4 mRNA expression level at 5 to 20 nM incubated for 8 hrs by qRT-PCR analysis; assay type: functional, cell-based; details: dose 5-20 nM
MDA-MB-231 [23] = assay: Induction of ferroptosis in human MDA-MB-231 cells assessed as increase in intracellular ROS accumulation by measuring green fluorescence intensity at 5 to 20 nM incubated for 8 hrs by DCFH-DA staining based confocal laser microscopy; assay type: functional, cell-based; details: dose 5-20 nM
[24] = Toxicity in immunodeficient BALB/c mouse xenografted with human MDA-MB-231 cells assessed as morphological changes in lung at 20 mg/kg, ip for 21 days by H and E staining based microscopy; assay type: organism-based; details: in vivo, 504 h, time 21 day
MDA-MB-468 = assay: Antiproliferative activity against human MDA-MB-468 cells assessed as inhibition of cell viability at 1 uM incubated for 72 hrs by CCK-8 assay; assay type: functional, cell-based
[25] = Metabolic stability in rat plasma at 1 uM and measured upto 24 hrs by LC-MS/MS analysis; assay type: ADME, cell-free
BT-549 [26] = assay: Antiproliferative activity against human BT-549 cells assessed as inhibition of cell viability incubated for 72 hrs by MTT assay; assay type: functional, cell-based; details: BT-549, 72 h
[27] = Toxicity in immunodeficient BALB/c mouse xenografted with human MDA-MB-231 cells assessed as morphological changes in spleen at 20 mg/kg, ip for 21 days by H and E staining based microscopy; assay type: organism-based; details: in vivo, 504 h, time 21 day
K562 = assay: Antiproliferative activity against human K562 cells assessed as inhibition of cell viability at 1 uM incubated for 72 hrs by MTT assay; assay type: functional, cell-based
[28] = Metabolic stability in human liver microsomes assessed as intrinsic clearance at 1 uM incubated upto 60 mins in presence of NADPH by LC-MS/MS analysis; assay type: ADME, Microsome; details: read-out: CLH

SMILES: COc1cc(N(C(=O)CCl)c2ccc3c(c2)OCCO3)cc(OC)c1F
- IC50 [1]: 120 nM
- Activity (HT-29): inactive
- Activity (MDA-MB-231 [2]): Active
- Activity [3]: Non-Toxic
- solubility [4]: 3.63 µg/mL (≈ 9.51 µM)
- Activity (MDA-MB-231 [5]): Active
- inhibition in vivo at 10 mg/kg (MDA-MB-231 [6]): 73.1%
- Activity (MDA-MB-231 [7]): inactive
- Activity (BT-549 [8]): Active
- Activity [9]: Toxic
- Activity (MDA-MB-231 [10]): Dose-Dependent Effect
- Activity (MDA-MB-231 [11]): Dose-Dependent Effect
- Activity (MDA-MB-231 [12]): Active
- inhibition in vivo at 20 mg/kg (MDA-MB-231 [13]): 81%
- Activity (MCF-10A): Non-Toxic
- Activity (MDA-MB-231 [14]): Active
- half-life at 1 µM [15]: 3.34 min
- IC50 (MDA-MB-231 [16]): 2570 nM
- Activity (MDA-MB-231 [17]): Active
- Activity (L02): Non-Toxic
- Activity (MDA-MB-231 [18]): inactive
- Activity (MDA-MB-231 [19]): Active
- Activity (MDA-MB-231 [20]): Active
- Activity [21]: Toxic
- Activity (MDA-MB-231 [22]): inactive
- Activity (MDA-MB-231 [23]): Dose-Dependent Effect
- Activity [24]: Non-Toxic
- Activity (MDA-MB-468): Active
- Stability [25]: Stable
- IC50 (BT-549 [26]): 75 nM
- Activity [27]: Non-Toxic
- Activity (K562): inactive
- microsomal CLint at 1 µM [28]: 416 µL/min/mg

SMILES: COc1cc(N(C(=O)CBr)c2ccc3c(c2)OCCO3)cc(OC)c1F
- IC50 [1]: 130 nM
- Activity (HT-29): inactive
- Activity (MDA-MB-231 [2]): Active
- Activity [3]: Non-Toxic
- solubility [4]: 3.3 µg/mL (≈ 7.74 µM)
- Activity (MDA-MB-231 [5]): Active
- inhibition in vivo at 10 mg/kg (MDA-MB-231 [6]): 47.9%
- Activity (MDA-MB-231 [7]): inactive
- Activity (BT-549 [8]): Active
- Activity [9]: Toxic
- Activity (MDA-MB-231 [10]): Dose-Dependent Effect
- Activity (MDA-MB-231 [11]): Dose-Dependent Effect
- Activity (MDA-MB-231 [12]): Active
- inhibition in vivo at 20 mg/kg (MDA-MB-231 [13]): 71.7%
- Activity (MCF-10A): Non-Toxic
- Activity (MDA-MB-231 [14]): Active
- half-life at 1 µM [15]: 0.79 min
- IC50 (MDA-MB-231 [16]): 1750 nM
- Activity (MDA-MB-231 [17]): Active
- Activity (L02): Non-Toxic
- Activity (MDA-MB-231 [18]): inactive
- Activity (MDA-MB-231 [19]): Active
- Activity (MDA-MB-231 [20]): Active
- Activity [21]: Toxic
- Activity (MDA-MB-231 [22]): inactive
- Activity (MDA-MB-231 [23]): Dose-Dependent Effect
- Activity [24]: Non-Toxic
- Activity (MDA-MB-468): Active
- Stability [25]: Stable
- IC50 (BT-549 [26]): 34 nM
- Activity [27]: Non-Toxic
- Activity (K562): inactive
- microsomal CLint at 1 µM [28]: 1740 µL/min/mg
